Measured values from the supplement of paper PMC10307832.

Tests used:
Experiment in all cases: relative viability (nuclei count vs DMSO), 5 days (fraction); higher = more cells survive
AZ3146 = compound: CN1CCC(CC1)OC2=CC(=C(C=C2)NC3=NC=C4C(=N3)N(C(=O)N4C)C5CCCC5)OC [AZ3146]
In short: (§1)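 Viability was read as treated-well nuclei divided by vehicle-well nuclei, using the median across plates. Lung cancer cell lines in 1536-well plates were kept overnight at 37 °C, pinned with five √10-spaced library-drug doses, and after 5 days were Hoechst-stained, imaged at 4× and counted in MetaXpress. Plates passed only with control CV below 25% and at least one doubling.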

GSK-J4 = compound: CCOC(=O)CCNc1cc(N2CCc3ccccc3CC2)nc(-c2ccccn2)n1 [GSK-J4]
In short: as §1

GSK-J4 + Pictilisib = compound: CCOC(=O)CCNc1cc(N2CCc3ccccc3CC2)nc(-c2ccccn2)n1 [GSK-J4] + CS(=O)(=O)N1CCN(Cc2cc3nc(-c4cccc5[nH]ncc45)nc(N4CCOCC4)c3s2)CC1 [Pictilisib] (partner 1 µM)
In short: (§2)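 One day after seeding in 1536-well plates, lung cancer cell lines were dosed by pin tool. Dosing was either single-drug or a fixed anchor-drug dose plus five library-drug doses (not always all listed) in √10 steps. After 5 days, nuclei were stained in one fix-and-stain step and counted on 4× images, and relative viability is the nuclei count of treated wells over that of vehicle wells, given as the median of duplicate plates.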

GSK-J4 + Alpelisib = compound: CCOC(=O)CCNc1cc(N2CCc3ccccc3CC2)nc(-c2ccccn2)n1 [GSK-J4] + Cc1nc(NC(=O)N2CCC[C@H]2C(N)=O)sc1-c1ccnc(C(C)(C)C(F)(F)F)c1 [Alpelisib] (partner 2 µM)
In short: as §2

UMC-11
relative viability (AZ3146; 0.08 µM): 0.863 | relative viability (AZ3146; 0.253 µM): 0.985 | relative viability (AZ3146; 0.8 µM): 0.971 | relative viability (AZ3146; 2.53 µM): 0.898 | relative viability (AZ3146; 8 µM): 0.624 | relative viability (GSK-J4; 0.5 µM): 0.96 | relative viability (GSK-J4; 1.581 µM): 0.735 | relative viability (GSK-J4; 5 µM): 0.741 | relative viability (GSK-J4; 15.81 µM): 1.01 | relative viability (GSK-J4; 50 µM): 0.551 | relative viability (GSK-J4 + Pictilisib; first compound 0.5 µM): 0.739 | relative viability (GSK-J4 + Pictilisib; first compound 1.581 µM): 0.527 | relative viability (GSK-J4 + Pictilisib; first compound 5 µM): 0.499 | relative viability (GSK-J4 + Pictilisib; first compound 15.81 µM): 0.9 | relative viability (GSK-J4 + Pictilisib; first compound 50 µM): 0.256 | relative viability (GSK-J4 + Alpelisib; first compound 0.5 µM): 0.932 | relative viability (GSK-J4 + Alpelisib; first compound 1.581 µM): 0.856 | relative viability (GSK-J4 + Alpelisib; first compound 5 µM): 1.06 | relative viability (GSK-J4 + Alpelisib; first compound 15.81 µM): 0.938 | relative viability (GSK-J4 + Alpelisib; first compound 50 µM): 0.607
